Results taken from ChEMBL document CHEMBL5365438, “2-Substituted 1,5-benzothiazepine-based HDAC inhibitors exert anticancer activities on human solid and acute myeloid leukemia cell lines” (Bioorg Med Chem, 2023).
Activity calls are given as the source filed them. No cut-off for these calls is given here.

Columns and labels:
HCT-116 [1] = test: Cytotoxicity against human HCT-116 cells assessed as reduction in cell death at 1 uM incubated for 24 hrs by PI staining based FACS analysis; format: functional
Histone deacetylase = format: subcellular, Homo sapiens, Nucleus; conditions: hela
Description: Inhibition of HDAC in human HeLa cell nuclear extract using Kac fluorogenic peptide as substrate containing residues 379-382 of p53 by fluorescence assay

U-937 [2] = test: Cytotoxicity against human U-937 cells assessed as cell death at 5 uM incubated for 24 hrs by PI staining based FACS analysis relative to control; format: functional
HCT-116 [3] = test: Cytotoxicity against human HCT-116 cells assessed as cell death at 5 uM incubated for 24 hrs by PI staining based FACS analysis relative to control; format: functional
U-937 [4] = test: Induction of cell cycle arrest in human U-937 assessed as reduced accumulation of cells in S phase at 1 uM incubated for 24 hrs by FACS analysis; format: functional, cell-based
U-937 [5] = test: Induction of cell cycle arrest in human U-937 assessed as increase accumulation of cells in G2/M phase at 1 to 5 uM incubated for 24 hrs by FACS analysis; format: functional, cell-based; conditions: dose 1-5 µM
U-937 [6] = test: Induction of cell cycle arrest in human U-937 assessed as decrease accumulation of cells in G1 phase at 5 uM incubated for 24 hrs by FACS analysis; format: functional, cell-based
HCT-116 [7] = test: Induction of cell cycle arrest in human HCT-116 assessed as accumulation of cells in G2/M phase at 1 to 5 uM incubated for 24 hrs by FACS analysis relative to SAHA; format: functional; conditions: dose 1-5 µM
[8] = target: T1, Histone deacetylase (Homo sapiens) (UniProt Q13547+O15379+Q9UBN7+Q92769+Q9UQL6+Q8WUI4+Q9BY41+Q96DB2+P56524+Q9UKV0+Q969S8); test: Inhibition of HDAC in human U-937 cells assessed as upregulation of histone H3 acetylation at lysine 14 residue at 1 uM incubated for 24 hrs by immunoblotting analysis; format: cell-based
[9] = target: T1, Histone deacetylase (Homo sapiens); test: Inhibition of HDAC in human U-937 cells assessed as upregulation of histone H3 acetylation at lysine 14 residue at 5 uM incubated for 24 hrs by immunoblotting analysis; format: cell-based
[10] = target: T1, Histone deacetylase (Homo sapiens); test: Inhibition of HDAC in human HCT-116 cells assessed as upregulation of acetyl alpha-tubulin level at 1 to 5 uM incubated for 24 hrs by immunoblotting analysis; format: cell-based; conditions: dose 1-5 µM
HCT-116 [11] = test: Induction of apoptosis in human HCT-116 cells assessed as increased p21 protein expression level at 1 to 5 uM incubated for 24 hrs by immunoblotting analysis; format: functional, cell-based; conditions: dose 1-5 µM
U-937 [12] = test: Induction of apoptosis in human U-937 cells assessed as increased p21 protein expression level at 1 to 5 uM incubated for 24 hrs by immunoblotting analysis; format: functional, cell-based; conditions: dose 1-5 µM
[13] = target: T2, Protein deacetylase HDAC6 (Homo sapiens) (UniProt Q9UBN7); test: Inhibition of HDAC6 (unknown origin) at 10 uM using fluorogenic peptide as substrate pre-incubated for 15 mins followed by substrate addition incubated for 30 mins by fluorescence assay; conditions: time 45.0 min
T2 sequence (whole entry): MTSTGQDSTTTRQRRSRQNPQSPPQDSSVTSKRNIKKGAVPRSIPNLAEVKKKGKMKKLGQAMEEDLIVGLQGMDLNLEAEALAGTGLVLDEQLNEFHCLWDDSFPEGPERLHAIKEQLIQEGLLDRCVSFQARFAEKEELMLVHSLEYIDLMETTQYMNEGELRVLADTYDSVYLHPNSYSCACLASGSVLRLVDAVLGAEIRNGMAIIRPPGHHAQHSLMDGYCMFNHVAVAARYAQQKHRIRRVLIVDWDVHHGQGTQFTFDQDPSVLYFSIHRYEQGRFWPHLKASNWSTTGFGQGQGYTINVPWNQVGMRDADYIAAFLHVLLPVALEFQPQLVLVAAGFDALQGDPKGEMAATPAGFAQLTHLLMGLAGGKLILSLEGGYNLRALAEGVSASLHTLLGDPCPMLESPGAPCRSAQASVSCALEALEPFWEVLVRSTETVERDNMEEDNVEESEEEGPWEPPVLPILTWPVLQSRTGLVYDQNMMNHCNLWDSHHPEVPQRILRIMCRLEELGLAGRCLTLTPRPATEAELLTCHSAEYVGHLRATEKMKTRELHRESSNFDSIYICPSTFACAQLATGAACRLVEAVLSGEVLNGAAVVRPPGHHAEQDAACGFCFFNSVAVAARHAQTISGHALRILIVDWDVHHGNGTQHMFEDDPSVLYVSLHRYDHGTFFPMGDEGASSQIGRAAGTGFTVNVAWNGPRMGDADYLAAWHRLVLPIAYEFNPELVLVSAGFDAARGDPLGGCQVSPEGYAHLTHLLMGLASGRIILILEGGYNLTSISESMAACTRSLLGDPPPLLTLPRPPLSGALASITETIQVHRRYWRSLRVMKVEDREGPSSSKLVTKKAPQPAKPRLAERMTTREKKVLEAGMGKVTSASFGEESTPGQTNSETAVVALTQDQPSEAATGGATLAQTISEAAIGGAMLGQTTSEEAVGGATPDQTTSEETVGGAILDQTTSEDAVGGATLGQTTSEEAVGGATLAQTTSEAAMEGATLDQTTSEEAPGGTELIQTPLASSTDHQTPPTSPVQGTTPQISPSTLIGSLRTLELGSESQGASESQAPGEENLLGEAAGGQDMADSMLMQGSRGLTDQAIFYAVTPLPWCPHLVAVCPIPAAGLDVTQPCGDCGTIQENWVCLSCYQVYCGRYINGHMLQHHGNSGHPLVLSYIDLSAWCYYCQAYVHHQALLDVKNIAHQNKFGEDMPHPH

[14] = target: Histone deacetylase 4 (Homo sapiens) (UniProt P56524); test: Inhibition of HDAC4 (unknown origin) at 10 uM using fluorogenic peptide as substrate pre-incubated for 15 mins followed by substrate addition incubated for 30 mins by fluorescence assay; conditions: time 45.0 min
Histone deacetylase 1 [15] = target: T3, Histone deacetylase 1 (Homo sapiens, UniProt Q13547); test: Inhibition of HDAC1 (unknown origin) at 10 uM using fluorogenic peptide as substrate pre-incubated for 15 mins followed by substrate addition incubated for 30 mins by fluorescence assay relative to control; conditions: time 45.0 min
Histone deacetylase 1 [16] = target: T3, Histone deacetylase 1; test: Inhibition of HDAC1 (unknown origin) using fluorogenic peptide as the substrate containing residues 379-382 of p53 pre-incubated for 15 mins followed by substrate addition incubated for 30 mins by multimode plate reader
U-937 [17] = test: Cytotoxicity against human U-937 cells assessed as cell death at 1 to 5 uM incubated for 24 hrs by PI staining based FACS analysis relative to control; format: functional; conditions: dose 1-5 µM
[18] = target: T1, Histone deacetylase (Homo sapiens); test: Inhibition of HDAC in human HCT-116 cells assessed as upregulation of histone H3 acetylation at lysine 14 residue at 1 uM incubated for 24 hrs by immunoblotting analysis; format: cell-based
[19] = target: T1, Histone deacetylase (Homo sapiens); test: Inhibition of HDAC in human U-937 cells assessed as upregulation of acetyl alpha-tubulin level at 5 uM incubated for 24 hrs by immunoblotting analysis; format: cell-based
U-937 [20] = test: Induction of cell cycle arrest in human U-937 assessed as decrease accumulation of cells in G1 phase at 1 to 5 uM incubated for 24 hrs by FACS analysis; format: functional, cell-based; conditions: dose 1-5 µM
HCT-116 [21] = test: Induction of cell cycle arrest in human HCT-116 assessed as decrease accumulation of cells in G1 phase at 1 to 5 uM incubated for 24 hrs by FACS analysis; format: functional, cell-based; conditions: dose 1-5 µM
U-937 [22] = test: Induction of cell cycle arrest in human U-937 assessed as decrease accumulation of cells in S phase at 1 to 5 uM incubated for 24 hrs by FACS analysis; format: functional, cell-based; conditions: dose 1-5 µM
HCT-116 [23] = test: Induction of cell cycle arrest in human HCT-116 assessed as decrease accumulation of cells in S phase at 1 to 5 uM incubated for 24 hrs by FACS analysis; format: functional, cell-based; conditions: dose 1-5 µM

T3 sequence (Q13547 whole entry, the tested form may be a part): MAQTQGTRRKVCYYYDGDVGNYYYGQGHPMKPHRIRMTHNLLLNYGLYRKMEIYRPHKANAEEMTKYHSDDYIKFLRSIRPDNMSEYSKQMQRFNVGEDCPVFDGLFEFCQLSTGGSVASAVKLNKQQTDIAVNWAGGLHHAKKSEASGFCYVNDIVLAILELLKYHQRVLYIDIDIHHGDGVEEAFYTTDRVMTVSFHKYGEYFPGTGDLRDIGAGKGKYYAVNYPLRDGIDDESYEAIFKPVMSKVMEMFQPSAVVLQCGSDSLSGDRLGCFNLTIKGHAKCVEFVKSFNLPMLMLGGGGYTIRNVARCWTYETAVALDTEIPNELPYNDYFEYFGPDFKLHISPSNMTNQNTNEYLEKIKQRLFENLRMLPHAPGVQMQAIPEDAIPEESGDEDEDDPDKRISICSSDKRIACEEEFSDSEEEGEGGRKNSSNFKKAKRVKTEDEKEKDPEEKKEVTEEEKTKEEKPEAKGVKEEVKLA
Histone deacetylase 4 (Homo sapiens), sequence (P56524 whole entry): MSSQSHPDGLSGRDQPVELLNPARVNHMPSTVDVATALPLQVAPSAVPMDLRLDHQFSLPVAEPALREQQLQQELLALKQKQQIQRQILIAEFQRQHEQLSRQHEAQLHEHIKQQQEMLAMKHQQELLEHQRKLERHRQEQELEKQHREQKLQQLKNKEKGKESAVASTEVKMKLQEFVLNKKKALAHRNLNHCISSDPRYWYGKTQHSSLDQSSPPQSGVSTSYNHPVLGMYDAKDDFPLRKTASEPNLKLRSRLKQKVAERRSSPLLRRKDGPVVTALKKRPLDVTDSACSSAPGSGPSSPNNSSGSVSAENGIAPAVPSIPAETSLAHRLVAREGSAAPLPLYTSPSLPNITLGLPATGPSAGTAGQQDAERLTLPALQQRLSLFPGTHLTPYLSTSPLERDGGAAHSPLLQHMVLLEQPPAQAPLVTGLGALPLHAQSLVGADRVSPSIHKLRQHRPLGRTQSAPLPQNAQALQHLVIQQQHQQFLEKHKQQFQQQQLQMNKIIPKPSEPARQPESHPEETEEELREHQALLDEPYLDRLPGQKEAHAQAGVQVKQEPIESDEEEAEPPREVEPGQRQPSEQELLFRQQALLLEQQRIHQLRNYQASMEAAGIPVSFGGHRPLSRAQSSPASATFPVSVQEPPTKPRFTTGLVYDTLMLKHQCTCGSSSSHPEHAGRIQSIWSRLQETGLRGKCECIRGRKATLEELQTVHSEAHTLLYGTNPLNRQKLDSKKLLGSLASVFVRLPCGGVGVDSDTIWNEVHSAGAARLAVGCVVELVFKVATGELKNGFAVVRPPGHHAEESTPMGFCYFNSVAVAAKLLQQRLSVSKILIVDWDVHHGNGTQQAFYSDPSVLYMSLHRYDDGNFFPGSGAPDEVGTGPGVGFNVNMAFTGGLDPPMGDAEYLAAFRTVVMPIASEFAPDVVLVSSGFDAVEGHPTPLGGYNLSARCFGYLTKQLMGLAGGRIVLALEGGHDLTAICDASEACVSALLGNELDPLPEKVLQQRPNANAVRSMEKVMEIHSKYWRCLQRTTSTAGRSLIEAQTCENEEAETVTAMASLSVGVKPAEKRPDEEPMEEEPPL

Compound	IC50 (Histone deacetylase)	Activity (U-937 [5])	Activity (HCT-116 [7])	Activity [8]	Activity [9]	Activity [10]	Activity (HCT-116 [11])	Activity (U-937 [12])	inhibition [13]	inhibition (Histone deacetylase 1 [15])	IC50 (Histone deacetylase 1 [16])	Activity (U-937 [17])	Activity [18]	Activity [19]	Activity (U-937 [20])	Activity (HCT-116 [21])	Activity (U-937 [22])	Activity (HCT-116 [23])	other results
O=C(CCCCCN1C(=O)C[C@@H](c2ccc(Cl)c(Cl)c2)Sc2ccccc21)NO	165.1 nM	Active	Active	Active	Active	Active	Active	Active											Activity (HCT-116 [1]): Active; Activity (U-937 [2]): ~12%; Activity (HCT-116 [3]): 22%; Activity (U-937 [4]): Active; Activity (U-937 [6]): Active
O=C(CCCCCCC(=O)Nc1ccc([C@H]2O[C@@H](CSc3nc(-c4ccccc4)c(-c4ccccc4)o3)C[C@@H](c3ccc(CO)cc3)O2)cc1)NO									94.3%										
O=C(NCC1(c2nc(-c3ccccc3)cs2)CCOCC1)c1cccc(-c2noc(C(F)(F)F)n2)c1																			inhibition [14]: 99.2%
Cc1ccc(C2CC(=O)N(CCCCCC(=O)NO)c3ccccc3S2(=O)=O)cc1 (racemic)	42.2 nM	Active	Active	Active	Active	Active	Active	Active	98.6%	93.5%	175 nM	~6%	Active	Active	Active	Active	Active	Active	
O=C(CCCCCN1C(=O)CC(c2ccccc2Cl)S(=O)(=O)c2ccccc21)NO (racemic)	40.6 nM	Active	Active	Active	Active	Active	Active	Active	99.4%	92.6%	270 nM	~6%	Active	Active	Active	Active	Active	Active	
